The values that follow are results of earlier work, collected in US20050244498A1 (priority 2001, published 2005).

SMILES strings stand for the structures.

The conditions of the series: in vivo.

As to `COc1ccc(C(CN(C)C)C2(O)CCCCC2)cc1` (racemic) [venlafaxine, (R/S)-1-[2-(dimethylamino)-1-(4methoxyphenyl)ethyl]cyclohexanol], the elimination half-life entry is given as “about 4 hours”.
In the case of `CN(C)CC(c1ccc(O)cc1)C1(O)CCCCC1` (centres unmarked) [active metabolite, O-desmethylvenlafaxine], the elimination half-life result is recorded as “about 8 hours”.
